A word on the pIC50: it is −log10 of the IC50, conventionally taken in molar units.

Among the data in patent US20110118262A1, “Pyrrolidinyl and Piperidinyl Compounds Useful as NHE-1 Inhibitiors” (BOEHRINGER INGELHEIM INTERNATIONAL GMBH, priority 2008, published 2011) are IC50 values, retold here.

Each structure is given as a SMILES string. pIC50: −log10 of the molar value.

The target in the assay is T1, NHE-1 (Homo sapiens, UniProt P19634).
T1 construct: endogenous in cells; host or cells: HT-29
T1 sequence (P19634 whole entry): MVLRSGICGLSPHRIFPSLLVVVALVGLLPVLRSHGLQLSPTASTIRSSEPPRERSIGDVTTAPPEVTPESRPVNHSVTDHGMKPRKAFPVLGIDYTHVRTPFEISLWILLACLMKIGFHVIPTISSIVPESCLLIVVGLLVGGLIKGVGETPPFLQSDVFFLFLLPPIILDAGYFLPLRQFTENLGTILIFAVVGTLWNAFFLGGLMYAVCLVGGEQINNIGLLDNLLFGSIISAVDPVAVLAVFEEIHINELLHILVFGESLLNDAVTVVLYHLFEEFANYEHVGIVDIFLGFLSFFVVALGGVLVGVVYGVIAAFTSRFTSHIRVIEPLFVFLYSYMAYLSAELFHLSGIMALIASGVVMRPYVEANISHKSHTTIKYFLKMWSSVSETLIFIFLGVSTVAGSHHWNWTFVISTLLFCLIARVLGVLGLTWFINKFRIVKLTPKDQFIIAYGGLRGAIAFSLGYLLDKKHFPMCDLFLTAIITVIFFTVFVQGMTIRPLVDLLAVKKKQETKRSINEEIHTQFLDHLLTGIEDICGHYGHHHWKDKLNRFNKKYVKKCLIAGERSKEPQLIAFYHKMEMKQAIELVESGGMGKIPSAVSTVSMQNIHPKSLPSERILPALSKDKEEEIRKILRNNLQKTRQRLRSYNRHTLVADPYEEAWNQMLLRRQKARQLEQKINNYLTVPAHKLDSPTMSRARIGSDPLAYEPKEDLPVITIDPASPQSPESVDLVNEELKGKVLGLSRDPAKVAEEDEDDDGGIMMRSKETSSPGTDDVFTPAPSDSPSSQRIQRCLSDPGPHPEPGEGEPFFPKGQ
As to the kind of experiment: Evaluation of NHE-1 Inhibition (pHi) in HT-29 cells. In kind it is cell-based. Particulars: BCECF dye, 50% inhibition of the intracellular pH recovery, read-out: NHE1 HT29 pHi IC50. The procedure, abridged: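 Intracellular pH measured with BCECF in HT-29 cells after 24 h culture. Cells dye-loaded 30 min at 37° C, then acid-loaded with NH4Cl-containing choline buffer (pH 7.5) for 30 min at RT. Compounds added on an FDSS6000 fluorescence reader.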

With `N=C(N)NC(=O)c1ccc(C2CCN(C(=O)c3ccc(-n4cccn4)nc3)CC2)c(C(F)(F)F)c1` [N-{4-[1-(6-Pyrazol-1-yl-pyridine-3-carbonyl)-piperidin-4-yl]-3-trifluoromethyl-benzoyl}-guanidine], the pIC50 was 7.04.

Turning to `C[S+]([O-])CC[C@H](N)C(=O)N1CCC(c2ccc(C(=O)NC(=N)N)cc2C(F)(F)F)CC1` (stereo partly drawn) [(S)-N-{4-[1-(-2-Amino-4-methanesulfinyl-butyryl)-piperidin-4-yl]-3-trifluoromethyl-benzoyl}-guanidine], the pIC50 was 7.92.

As for `CC(C)C(N)C(=O)N1CCC(c2ccc(C(=O)NC(=N)N)cc2C(F)(F)F)CC1` (stereo not shown) [N-{4-[1-(2-Amino-3-methyl-butyryl)-piperidin-4-yl]-3-trifluoromethyl-benzoyl}-guanidine], the pIC50 is 7.92.

For the compound `N=C(N)NC(=O)c1ccc(C2CCN(C(=O)c3ccc(O)nc3)CC2)c(C(F)(F)F)c1` [N-{4-[1-(6-Hydroxy-pyridine-3-carbonyl)-piperidin-4-yl]-3-trifluoromethyl-benzoyl}-guanidine], the negative-log IC50 (pIC50) was 7.68. Turning to `N=C(N)NC(=O)c1ccc(C2CCN(C(=O)CN3CCOCC3)CC2)c(C(F)(F)F)c1` [N-{4-[1-(2-Morpholin-4-yl-acetyl)-piperidin-4-yl]-3-trifluoromethyl-benzoyl}-guanidine], the pIC50 is 7.60. In the case of `CC1(C(=O)N2CCC(c3ccc(C(=O)NC(=N)N)cc3C(F)(F)F)CC2)CCCN1` (stereo not shown) [N-{4-[1-(2-Methyl-pyrrolidine-2-carbonyl)-piperidin-4-yl]-3-trifluoromethyl-benzoyl}-guanidine], the pIC50 was 7.92. For `N=C(N)NC(=O)c1ccc(C2CCN(C(=O)c3cccc(Br)c3)CC2)c(C(F)(F)F)c1` [N-{4-[1-(3-Bromo-benzoyl)-piperidin-4-yl]-3-trifluoromethyl-benzoyl}-guanidine] the value was 6.74; for `CS(=O)(=O)c1cccc(C(=O)N2CCC(c3ccc(C(=O)NC(=N)N)cc3C(F)(F)F)CC2)c1` [N-{4-[1-(3-Methanesulfonyl-benzoyl)-piperidin-4-yl]-3-trifluoromethyl-benzoyl}-guanidine], 7.20.

For `COc1ccc(CC(N)C(=O)N2CCC(c3ccc(C(=O)NC(=N)N)cc3C(F)(F)F)CC2)cc1` (stereo not shown), the negative logarithm of the IC50 (pIC50) is 7.43. Next, `N=C(N)NC(=O)c1ccc(C2=CCN(C(=O)c3cnc[nH]3)CC2)c(C(F)(F)F)c1` [N-{4-[1-(3H-Imidazole-4-carbonyl)-1,2,3,6-tetrahydro-pyridin-4-yl]-3-trifluoromethyl-benzoyl}-guanidine]: 7.59; `COCC(=O)N1CCC(c2cc(OC)c(C(=O)NC(=N)N)cc2C(F)(F)F)CC1` [N-{2-Methoxy-4-[1-(2-methoxy-acetyl)-piperidin-4-yl]-5-trifluoromethyl-benzoyl}-guanidine]: 8.05. Next, `N=C(N)NC(=O)c1ccc(C2CCN(C(=O)C3COCCN3)CC2)c(C(F)(F)F)c1` (stereo not shown) [N-{4-[1-(Morpholine-3-carbonyl)-piperidin-4-yl]-3-trifluoromethyl-benzoyl}-guanidine]: 7.46; `N=C(N)NC(=O)c1ccc(C2CCN(C(=O)Cn3ccnc3)CC2)c(C(F)(F)F)c1` [N-{4-[1-(2-Imidazol-1-yl-acetyl)-piperidin-4-yl]-3-trifluoromethyl-benzoyl}-guanidine]: 8.22. Regarding `N=C(N)NC(=O)c1ccc(C2CCN(C(=O)c3ccc(-n4cccn4)cc3)CC2)c(C(F)(F)F)c1` [N-{4-[1-(4-Pyrazol-1-yl-benzoyl)-piperidin-4-yl]-3-trifluoromethyl-benzoyl}-guanidine], the pIC50 is 7.06. For `N=C(N)NC(=O)c1ccc(C2CCN(C(=O)C(N)CO)CC2)c(C(F)(F)F)c1` (stereo not shown) [N-{4-[1-(2-Amino-3-hydroxy-propionyl)-piperidin-4-yl]-3-trifluoromethyl-benzoyl}-guanidine] the value was 8.30; for `Cc1cc(C2CCN(C(=O)c3ccc(=O)[nH]c3)CC2)c(C(F)(F)F)cc1C(=O)NC(=N)N` [N-{2-Methyl-4-[1-(6-oxo-1,6-dihydro-pyridine-3-carbonyl)-piperidin-4-yl]-5-trifluoromethyl-benzoyl}-guanidine], 7.52; for `COc1cc(C2CCN(C(=O)c3cccc(C#N)c3)CC2)c(C(F)(F)F)cc1C(=O)NC(=N)N` [N-{4-[1-(3-Cyano-benzoyl)-piperidin-4-yl]-2-methoxy-5-trifluoromethyl-benzoyl}-guanidine], 7.72. Next, `CN(C)C(=O)N1CCC(c2ccc(C(=O)NC(=N)N)cc2C(F)(F)F)CC1` [4-(4-Guanidinocarbonyl-2-trifluoromethyl-phenyl)-piperidine-1-carboxylic acid dimethylamide]: 8.00.

On to `CN(C)c1cccc(C(=O)N2CCC(c3ccc(C(=O)NC(=N)N)cc3C(F)(F)F)CC2)c1` [N-{4-[1-(3-Dimethylamino-benzoyl)-piperidin-4-yl]-3-trifluoromethyl-benzoyl}-guanidine], for which the negative-log IC50 (pIC50) is 7.11.

`N=C(N)NC(=O)c1ccc(C2CCN(C(=O)C(N)Cc3cccs3)CC2)c(C(F)(F)F)c1` (stereo not shown) [N-{4-[1-(2-Amino-3-thiophen-2-yl-propionyl)-piperidin-4-yl]-3-trifluoromethyl-benzoyl}-guanidine]: the negative-log IC50 (pIC50) was 7.46. For `N=C(N)NC(=O)c1ccc(C2CCN(C(=O)[C@H](N)c3ccccc3)CC2)c(C(F)(F)F)c1` [(R)-N-{4-[1-(2-Amino-2-phenyl-acetyl)-piperidin-4-yl]-3-trifluoromethyl-benzoyl}-guanidine] the value was 7.62; for `COc1ccc(CC(=O)N2CCC(c3ccc(C(=O)NC(=N)N)cc3C(F)(F)F)CC2)cc1` [N-(4-{1-[2-(4-Methoxy-phenyl)-acetyl]-piperidin-4-yl}-3-trifluoromethyl-benzoyl)-guanidine], 6.85. In the case of `N=C(N)NC(=O)c1ccc(C2CCN(C(=O)c3ccc4cccnc4n3)CC2)c(C(F)(F)F)c1` [N-{4-[1-([1,8]Naphthyridine-2-carbonyl)-piperidin-4-yl]-3-trifluoromethyl-benzoyl}-guanidine], the negative logarithm of the IC50 (pIC50) was 7.60. Next, `N=C(N)NC(=O)c1ccc(C2CCN(C(=O)c3cccc(-c4ccccn4)c3)CC2)c(C(F)(F)F)c1` [N-{4-[1-(3-Pyridin-2-yl-benzoyl)-piperidin-4-yl]-3-trifluoromethyl-benzoyl}-guanidine]: 6.83. As for `N=C(N)NC(=O)c1ccc(C2CCN(C(=O)c3cn4ccccc4n3)CC2)c(C(F)(F)F)c1` [N-{4-[1-(Imidazo[1,2-a]pyridine-2-carbonyl)-piperidin-4-yl]-3-trifluoromethyl-benzoyl}-guanidine], the pIC50 is 7.77. Regarding `N=C(N)NC(=O)c1ccc(C2CCN(C(=O)c3cccc(S(=O)(=O)C(F)(F)F)c3)CC2)c(C(F)(F)F)c1` [N-{4-[1-(3-Trifluoromethanesulfonyl-benzoyl)-piperidin-4-yl]-3-trifluoromethyl-benzoyl}-guanidine], the negative-log IC50 (pIC50) was 6.55. `Cc1cc(C2CCN(C(=O)C(C)(C)N)CC2)c(C(F)(F)F)cc1C(=O)NC(=N)N` [N-{4-[1-(2-Amino-2-methyl-propionyl)-piperidin-4-yl]-2-methyl-5-trifluoromethyl-benzoyl}-guanidine]: the negative-log IC50 (pIC50) was 8.00. `CNC(=O)c1ccc(C(=O)N2CCC(c3ccc(C(=O)NC(=N)N)cc3C(F)(F)F)CC2)cc1` [4-[4-(4-Guanidinocarbonyl-2-trifluoromethyl-phenyl)-piperidine-1-carbonyl]-N-methyl-benzamide]: the pIC50 was 7.37.
